One data set has as its system lymph nodes. As to the kind of experiment: dye tested on rabbits for staining of the lymph nodes. It counts as in vivo. The source says:
The present invention in one embodiment therefore acts as a dye that stains the lymphatic channels of the body for identification of the sentinel lymph node.

For data set [1] the following is noted: rats bearing tumors; cited from earlier work.

For the substance “Tc-99m Phthalocyanine Tetrasulfonate [Tc-99m-PCTS]”, in the data set with lymph nodes, the “staining of the lymph nodes” value is “successfully shown to stain the lymph nodes”.
As to “^99Tc-labeled-tetrasulfophtalocyanine [[^99Tc] TSPC]”, in data set [1], the “in vivo stability of the complex” value was “absence of ^99Tc accumulation in the thyroid and the stomach”; the “tissue distribution (accumulation of most of the product)” value is “accumulated in the liver, kidneys, ovaries, and uterus”; the tumor uptake result is listed as “occurred mainly in the exterior cell layers”.

The record behind these values is patent US7198775B2, “Detectably labeled porphyrin compound for identifying the sentinel lymph node” (The Trustees of Columbia University in the City of New York, priority 2000, dated 2007).
